Legend:
Type in all cases: cell-based, mouse
[1] = system: ARG1, NOS2, CD206 and MHC II mRNA expression in BMDMs; assay: qRT-PCR of ARG1, NOS2, CD206, MHC II in BMDMs; settings: BMDMs stimulated with IL-4/IL-13, different concentrations, 12 h
Method: We also extended the test to primary murine macrophages derived from bone marrow (BMDMs), which were cultured in vitro with recombinant mouse M-CSF for 6 days. The BMDMs were then stimulated with IL-4/IL-13, leading to their transformation into M2-like pro-tumoral macrophages. This transformation was characterized by an increase in both ARG1 and CD206 expression and a decrease in both NOS2 and MHC II expression. […] Subsequently, we assessed the capacity of compound 12 to inhibit the M2-like polarization of macrophages using CSF-1-differentiated mouse BMDMs. These cells were treated with IL-4 and IL-13 for 48 h, and the expression levels of CD206, an M2-type marker, and CD86, an M1-type marker, were analyzed via flow cytometry. […]
(§1) Figure 2 Compound 12 inhibits the M2-like polarized phenotype of macrophages. […] The expression levels of the markers CD206 and CD86 on induced macrophages were determined by flow cytometry, and the mean fluorescence intensity (MFI) was analyzed with FlowJo (C), or the cells were lysed and immunoblotted to detect the indicated proteins (D). […] Data are represented as means ± SD. ^### p < 0.001 vs. non-stimulated control group, * p < 0.05, ** p < 0.01, *** p < 0.001 vs. stimulated control group. p-values were determined using one-way ANOVA.

[2] = system: ARG1 protein expression in BMDMs; assay: Western blot of ARG1 protein in macrophages; settings: CSF-1-differentiated BMDMs, IL-4 and IL-13, 48 h, different concentrations
Method: We also extended the test to primary murine macrophages derived from bone marrow (BMDMs), which were cultured in vitro with recombinant mouse M-CSF for 6 days. The BMDMs were then stimulated with IL-4/IL-13, leading to their transformation into M2-like pro-tumoral macrophages. This transformation was characterized by an increase in both ARG1 and CD206 expression and a decrease in both NOS2 and MHC II expression. […] Subsequently, we assessed the capacity of compound 12 to inhibit the M2-like polarization of macrophages using CSF-1-differentiated mouse BMDMs. These cells were treated with IL-4 and IL-13 for 48 h, and the expression levels of CD206, an M2-type marker, and CD86, an M1-type marker, were analyzed via flow cytometry.
Total cellular protein was extracted using a 1 × SDS lysis buffer and denatured at 100 °C for 15 min. […]
as §1

[3] = system: CD8+ T cell proliferation and activation suppressed by M2-like BMDMs; assay: CD8+ T cell suppression assay (BMDM / spleen cell co-culture); settings: BMDMs pretreated 48 h, co-cultured 48 h with anti-CD3/CD28-stimulated spleen cells
Method: Pro-tumoral M2-like TAMs are well-known to directly suppress CD8^+ T cell proliferation and activation. When they were co-cultured with autologous spleen cells, as expected, the IL-4/IL-13-induced BMDMs suppressed the proliferation and activation of CD8^+ T cells.
Spleen cells were isolated from C57BL/6 mice, followed by red blood cell (RBC) lysis. BMDMs were induced into M2-like macrophages and treated with different concentrations of compound 1 for 48 h. Then, 2 × 10^5 spleen cells/well were stimulated with αCD3/αCD28 and co-cultured with 2 × 10^4 pro-treated BMDMs in 96-well plates in LCM (RPMI 1640 with […] 2-mercaptoethanol and 10% fetal bovine serum) at 37 °C. After 48 h, the spleen cells were treated with the eBioscience™ Cell Stimulation Cocktail (plus protein transport inhibitors) for 4 h, and cell activation was then determined by the proportion of IFNγ^+ CD8^+ T cells and GRZB^+ CD8^+ T cells in CD8^+ T cells measured using flow cytometry. Cell proliferation was determined by the proportion of Ki67^+ CD8^+ T cells in CD8^+ T cells using flow cytometry.
Figure 3 Compound 12 reverses macrophage-mediated CD8^+ T cell suppression. […] The ratios of Ki67^+ CD8^+ T cells (A), IFNγ^+ CD8^+ T cells, and granzyme B^+ CD8^+ T cells (B) in total CD8^+ T cells were assessed using flow cytometry. […]

COC(=O)C1=CC[C@@]23CC[C@@H]([C@@](C)(/C=C/C=C(\C)C(=O)NNCCO)OC2=O)[C@@]3(OC(C)=O)CC1 [compound 12, Methyl(3R,4S,4aS,9aR)-4a-acetoxy-3-((1E,3E)-5-(2-(2-hydroxyethyl)hydrazineyl)-4-methyl-5-oxopenta-1,3-dien-1-yl)-3-methyl-1-oxo-3,4,4a,5,6,9-hexahydro-1H-4,9a-ethanocyclohepta[c]pyran-7-carboxylate]
IL-4/IL-13-induced increase in ARG1 and CD206 and decrease in NOS2 and MHC II expression [1]: significantly reversed these trends
ARG1 protein expression (Western blot) [2]: potent inhibitory activity at the protein level
inhibitory effects of IL-4/IL-13-induced BMDMs on CD8+ T cell proliferation and activation (Ki67+, IFNγ+, GRZB+ CD8+ T cells) [3]: dose-dependently reversed
